Results from patent publication US11497761B2, “Compositions for the treatment of metastatic cancer” (priority 2019, dated 2022).

Experiments:
[1] = tested on: iCTCs from prostate cancer patients; assay: iCTC drug response (CDR) testing ex vivo, Project 1 Study-Prostate Cancer; format: cell-based, human; details: for number of live iCTCs remaining after treatment: 72 hours
Protocol: Materials for Project 1 Study-Prostate Cancer • Blood collection tubes: BD Vacutainer® 10 mL sodium heparin tube (BD catalog #367874)). • Vita-Assay™ AN6W plate. • Blood: prostate cancer, up to 40-mL blood was collected from patients and provided by Conversant bio. • Stock Solution and Dilutions • Monolaurin, 4.78 mM with 0.75% PS-80 (Stock Solution C), 13.1 mg monolaurin in 0.25 mL PS-80 and 0.75 mL water and 0.1 mL of this solution was diluted with 0.9 mL of RPMI. Stock solutions were stable for 2 weeks at 4 degrees C. Monolaurin used is an equal mixture of 1-, 2-, and 3-isomers of monolaurin. • Dilution: Monolaurin: Add 209.2 uL, 627.6 uL, and 1.2552 mL of CPI-2400 in 0.75% PS-80 (Stock solution C) and dilute to 10 mL of media to achieve final concentrations of 100 uM, 200 uM, and 300 uM final concentrations of drug cell exposure respectively.
With respect to FIG. 1, a depiction of a generalized experimental scheme for testing efficacy of a composition in accordance with an exemplary embodiment of the present invention against iCTC from the blood of prostate cancer patients is shown. Invasive circulating tumor cells (iCTCs) were obtained from venous blood of the individual with advanced prostate cancer, cultured and exposed to a specific drug or battery of drugs at 1×, 2×, and 3× concentrations in vitro for 3 days. Drug responsiveness was measured by automatic flow cytometry using the reduction of live iCTCs in the treated samples from the number of live iCTCs in the untreated controls. The greater the reduction of iCTCs of a given drug at a given dose indicates greater responsiveness to that dose of the drug. Four AN6W plates were used for each sample. Control and drug at each dose in triplicate were incubated for 72 hours. The iCTCs were measured by flow cytometry and viewed by microscopy as described. The complete culture medium contains 10% fetal bovine serum.
The complete experimental procedure for The Project 1 Study-Prostate Cancer followed the same procedure as that used with respect to The Project 1 Study-Pancreatic Cancer. With reference to FIGS. 5 and 6, flow cytometry evaluation: Count tumor cells and immune cells by using a 4-channel (FITC, PE, APC, and 7AAD) flow cytometer. iCTC is defined as: EPI^+TP^+CD45^−[…] • FIG. 5 depicts images of solitary and clustered iCTCs with specific markers in a cytospin preparation of the RP-19 sample. […] Pink arrows indicated iCTC clusters. A tumor cell was positively stained with green fluorescence-epithelial marker (GF-Epi), blue fluorescence nucleic acid dye (BF-Hoechst) and red fluorescence tumor progenitor (TP) marker (RF-TP). White arrows indicate WBCs that were not stained by Epi and TP tumor markers. Bar=40 μm. Cells from RP-19 were cultured for 3 days before staining.

[2] = tested on: primary human T-cell signaling; details: in vitro, cited from earlier work
[3] = tested on: Ehrlich ascites tumor cells; details: in vitro, Kato et al. 1971; cited from earlier work

**Q.** For `CCCCCCCCCCCC(=O)OCC(O)CO` (centres unmarked) [Monolaurin, glycerol monolaurate], which “kill rates of iCTCs (summary)” value ([1]; iCTCs from prostate cancer patients) is on record?
**A.** Its value is “high kill rates”.

**Q.** And the “number of live iCTCs remaining after treatment” value (shortened to “number of live iCTCs remaining”) ([1]; patient RP02 (Taxotere), iCTC control 450, 100 uM monolaurin)?
**A.** The value was 0.

**Q.** And the “number of live iCTCs remaining” value ([1]; patient RP02 (Taxotere), iCTC control 450, 200 uM monolaurin)?
**A.** Its value is 0.

**Q.** And the “number of live iCTCs remaining” value ([1]; patient RP02 (Taxotere), iCTC control 450, 300 uM monolaurin)?
**A.** Its value is 0.

**Q.** What about the “number of live iCTCs remaining” value ([1]; patient RP06 (Taxotere), iCTC control 40, 100 uM monolaurin) of the same compound?
**A.** The value was 10.

**Q.** And the “number of live iCTCs remaining” value ([1]; patient RP06 (Taxotere), iCTC control 40, 200 uM monolaurin)?
**A.** Its value is 0.

**Q.** What about the “number of live iCTCs remaining” value ([1]; patient RP06 (Taxotere), iCTC control 40, 300 uM monolaurin) of the same compound?
**A.** Its value is 0.

**Q.** And the “number of live iCTCs remaining” value ([1]; patient RP07 (Taxotere), iCTC control 200, 100 uM monolaurin)?
**A.** Its value is 0.

**Q.** And the “number of live iCTCs remaining” value ([1]; patient RP07 (Taxotere), iCTC control 200, 200 uM monolaurin)?
**A.** The value was 0.

**Q.** And the “number of live iCTCs remaining” value ([1]; patient RP07 (Taxotere), iCTC control 200, 300 uM monolaurin)?
**A.** The value was 0.

**Q.** And the “number of live iCTCs remaining” value ([1]; patient RP08 (Taxotere), iCTC control 60, 100 uM monolaurin)?
**A.** The value was 0.

**Q.** What about the “number of live iCTCs remaining” value ([1]; patient RP08 (Taxotere), iCTC control 60, 200 uM monolaurin) of the same compound?
**A.** The value was 0.

**Q.** And the “number of live iCTCs remaining” value ([1]; patient RP08 (Taxotere), iCTC control 60, 300 uM monolaurin)?
**A.** Its value is 0.

**Q.** And the “number of live iCTCs remaining” value ([1]; patient RP09 (Taxotere), iCTC control 225, 100 uM monolaurin)?
**A.** The value was 0.

**Q.** And the “number of live iCTCs remaining” value ([1]; patient RP09 (Taxotere), iCTC control 225, 200 uM monolaurin)?
**A.** The value was 0.

**Q.** And the “number of live iCTCs remaining” value ([1]; patient RP09 (Taxotere), iCTC control 225, 300 uM monolaurin)?
**A.** The value was 0.

**Q.** And the “number of live iCTCs remaining” value ([1]; patient RP13 (Taxotere), iCTC control 75, 100 uM monolaurin)?
**A.** Its value is 0.

**Q.** What about the “number of live iCTCs remaining” value ([1]; patient RP13 (Taxotere), iCTC control 75, 200 uM monolaurin) of the same compound?
**A.** Its value is 0.

**Q.** And the “number of live iCTCs remaining” value ([1]; patient RP13 (Taxotere), iCTC control 75, 300 uM monolaurin)?
**A.** Its value is 0.

**Q.** And the “number of live iCTCs remaining” value ([1]; patient RP15 (Taxotere), iCTC control 50, 100 uM monolaurin)?
**A.** Its value is 20.

**Q.** What about the “number of live iCTCs remaining” value ([1]; patient RP15 (Taxotere), iCTC control 50, 200 uM monolaurin) of the same compound?
**A.** The value was 10.

**Q.** What about the “number of live iCTCs remaining” value ([1]; patient RP15 (Taxotere), iCTC control 50, 300 uM monolaurin) of the same compound?
**A.** The value was 0.

**Q.** And the “number of live iCTCs remaining” value ([1]; patient RP19 (Taxotere), iCTC control 425, 100 uM monolaurin)?
**A.** The value was 50.

**Q.** And the “number of live iCTCs remaining” value ([1]; patient RP19 (Taxotere), iCTC control 425, 200 uM monolaurin)?
**A.** The value was 50.

**Q.** And the “number of live iCTCs remaining” value ([1]; patient RP19 (Taxotere), iCTC control 425, 300 uM monolaurin)?
**A.** The value was 0.

**Q.** What about the “number of live iCTCs remaining” value ([1]; patient RP20 (Taxotere), iCTC control 50, 100 uM monolaurin) of the same compound?
**A.** Its value is 20.

**Q.** What about the “number of live iCTCs remaining” value ([1]; patient RP20 (Taxotere), iCTC control 50, 200 uM monolaurin) of the same compound?
**A.** The value was 10.

**Q.** What about the “number of live iCTCs remaining” value ([1]; patient RP20 (Taxotere), iCTC control 50, 300 uM monolaurin) of the same compound?
**A.** The value was 5.

**Q.** What about the “number of live iCTCs remaining” value ([1]; patient RP212 (Taxotere), iCTC control 55, 100 uM monolaurin) of the same compound?
**A.** Its value is 30.

**Q.** What about the “number of live iCTCs remaining” value ([1]; patient RP212 (Taxotere), iCTC control 55, 200 uM monolaurin) of the same compound?
**A.** The value was 10.

**Q.** What about the “number of live iCTCs remaining” value ([1]; patient RP212 (Taxotere), iCTC control 55, 300 uM monolaurin) of the same compound?
**A.** The value was 10.

**Q.** And the “number of live iCTCs remaining” value ([1]; patient Rp05 (Taxotere), iCTC control 20, 100 uM monolaurin)?
**A.** Its value is 15.

**Q.** What about the “number of live iCTCs remaining” value ([1]; patient Rp05 (Taxotere), iCTC control 20, 200 uM monolaurin) of the same compound?
**A.** The value was 0.

**Q.** What about the “number of live iCTCs remaining” value ([1]; patient Rp05 (Taxotere), iCTC control 20, 300 uM monolaurin) of the same compound?
**A.** Its value is 0.

**Q.** What about the “concentration interfering with activated T cell adhesion and actin organization” value ([2]; formulated in 95% ethanol) of the same compound?
**A.** The value was 10 to 20 µg/mL.

**Q.** And the “concentration interfering with activated T cell adhesion and actin organization (equivalent)” value ([2]; formulated in 95% ethanol)?
**A.** Its value is 36 to 73 µM.

**Q.** And the “concentrations inhibiting primary human T-cell signaling” value [2]?
**A.** The value was 36 to 73 µM.

**Q.** And the anticancer activity [3]?
**A.** Its anticancer activity is “only weak activity”.
